Experimental data as given in patent US12459943B2, “Crystalline solid forms of a BET inhibitor” (Incyte Corporation, priority 2016, dated 2025).

Legend:
[1] = Relative stability and interconversion of crystalline forms in organic solvents; assay type: physicochemical
[2] = Stability of crystalline forms in aqueous suspension; assay type: physicochemical
Description: Recrystallization conducted in a mixture of tetrahydrofuran (THF), acetone, and n-heptane using similar procedures as above afford Form II of the crystalline Compound 1 drug substance was obtained. Both Form I and Form II have very sharp melting endotherm peaks on DSC, and the two forms are about one degree difference in peak melting temperature: 266.4° C. for Form I and 267.5° C. for Form II.

relative stability of the crystalline form in IPA ([1]; IPA) | stability in aqueous suspension [2] | relative stability of the crystalline form in MeOH and acetone ([1]; MeOH and acetone) | interconversion of forms ([1]; mixture of methanol, acetone, and n-heptane, depending on solvent ratio, temperature, and time) | Structure (SMILES)
more stable |  |  |  | CN1C(=O)C(C)(C)Oc2c(-c3cn(C)c(=O)c4[nH]ccc34)cc(S(C)(=O)=O)cc21 [Form II, 2,2,4-trimethyl-8-(6-methyl-7-oxo-6,7-dihydro-1H-pyrrolo[2,3-c]pyridin-4-yl)-6-(methylsulfonyl)-2H-benzo[b][1,4]oxazin-3(4H)-one]
 | stable in aqueous suspension | most stable form | could be interconverted to each other | CN1C(=O)C(C)(C)Oc2c(-c3cn(C)c(=O)c4[nH]ccc34)cc(S(C)(=O)=O)cc21 [Form I, 2,2,4-trimethyl-8-(6-methyl-7-oxo-6,7-dihydro-1H-pyrrolo[2,3-c]pyridin-4-yl)-6-(methylsulfonyl)-2H-benzo[b][1,4]oxazin-3(4H)-one]
